Assay results from ChEMBL document CHEMBL1137621, “3-Nitro-4-amino benzoic acids and 6-amino nicotinic acids are highly selective agonists of GPR109b” (Bioorg Med Chem Lett, 2007).
Active and inactive are the calls of the source. No cut-off for these calls is given here.

Key:
[1] = target: Hydroxycarboxylic acid receptor 3 (Homo sapiens, UniProt P49019); experiment: Agonist activity at human GPR109b receptor transfected in CHOK1 cells assessed as reversal of forskolin-induced cAMP elevating effect by whole cell assay; assay type: functional, cell-based, CHO-K1
[2] = target: T1, Hydroxycarboxylic acid receptor 2 (Homo sapiens, UniProt Q8TDS4); experiment: Agonist activity at human GPR109a receptor transfected in CHOK1 cells at 30 uM assessed as reversal of forskolin induced cAMP elevating effect by whole cell assay; assay type: functional, cell-based; conditions: CHO-K1
[3] = target: T1, Hydroxycarboxylic acid receptor 2; experiment: Agonist activity at human GPR109a receptor transfected in CHOK1 cells assessed as reversal of forskolin induced cAMP elevating effect by whole cell assay; assay type: functional, cell-based, CHO-K1

Hydroxycarboxylic acid receptor 3, sequence (P49019 whole entry): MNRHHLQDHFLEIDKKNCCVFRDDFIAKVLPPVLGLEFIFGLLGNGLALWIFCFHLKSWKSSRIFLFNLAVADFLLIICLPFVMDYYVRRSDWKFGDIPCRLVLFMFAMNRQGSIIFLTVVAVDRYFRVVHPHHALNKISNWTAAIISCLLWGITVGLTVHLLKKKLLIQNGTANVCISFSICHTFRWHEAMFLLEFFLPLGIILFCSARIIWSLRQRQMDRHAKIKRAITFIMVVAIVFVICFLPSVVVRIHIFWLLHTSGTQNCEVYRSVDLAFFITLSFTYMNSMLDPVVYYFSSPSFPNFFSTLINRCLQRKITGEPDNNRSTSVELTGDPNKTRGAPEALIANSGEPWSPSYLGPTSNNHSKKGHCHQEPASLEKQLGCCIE
T1 sequence (Q8TDS4 whole entry): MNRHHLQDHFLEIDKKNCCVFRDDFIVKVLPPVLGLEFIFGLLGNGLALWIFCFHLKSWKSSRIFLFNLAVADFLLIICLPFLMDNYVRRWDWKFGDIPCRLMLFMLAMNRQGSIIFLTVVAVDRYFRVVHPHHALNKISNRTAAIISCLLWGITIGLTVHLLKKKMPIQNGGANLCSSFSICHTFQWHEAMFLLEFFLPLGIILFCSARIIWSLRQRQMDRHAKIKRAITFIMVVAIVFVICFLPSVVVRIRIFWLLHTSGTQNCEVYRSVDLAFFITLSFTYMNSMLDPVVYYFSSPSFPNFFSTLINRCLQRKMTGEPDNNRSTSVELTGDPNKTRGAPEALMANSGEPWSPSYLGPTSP

Row | EC50 [1] [nM] | Activity [2] | EC50 [3] [nM] | Activity ([1]; CHO-K1) | Compound
1 | > 10000 | inactive | – | – | CCN(CC)c1ccc(C(=O)O)cn1
2 | 309 | inactive | – | – | O=C(O)c1ccc(NC2CCCC2)c([N+](=O)[O-])c1
3 | 1910 | inactive | – | – | CNc1ccc(C(=O)O)cc1[N+](=O)[O-]
4 | 282 | inactive | – | – | CCCCCNc1ccc(C(=O)O)cc1[N+](=O)[O-]
5 | 229 | inactive | – | – | CCNc1ccc(C(=O)O)cc1[N+](=O)[O-]
6 | 3240 | inactive | – | – | COCC(C)Nc1ccc(C(=O)O)cn1 (centres undefined)
7 | 3090 | inactive | – | – | O=C(O)c1ccc(NC(=O)c2ccccc2)c([N+](=O)[O-])c1
8 | 200 | inactive | – | – | O=C(O)c1ccc(NC2CCC2)c([N+](=O)[O-])c1
9 | 257 | inactive | – | – | CC(C)Nc1ccc(C(=O)O)cc1[N+](=O)[O-]
10 | 589 | inactive | – | – | COCCNc1ccc(C(=O)O)cc1[N+](=O)[O-]
11 | 380 | inactive | – | – | CCC(C)Nc1ccc(C(=O)O)cn1 (centres undefined)
12 | 70.8 | inactive | – | – | C=CCNc1ccc(C(=O)O)cn1
13 | 29.5 | inactive | – | – | CCCNc1ccc(C(=O)O)cc1[N+](=O)[O-]
14 | 1070 | – | 35000 | – | CC(C)CNc1ccc(C(=O)O)cn1
15 | 151 | inactive | – | – | CCCCCNc1ccc(C(=O)O)cn1
16 | 120 | inactive | – | – | CCCN(CCC)c1ccc(C(=O)O)cc1[N+](=O)[O-]
17 | > 10000 | inactive | – | – | O=C(O)c1ccc(N2CCCC2)c([N+](=O)[O-])c1
18 | 72.4 | inactive | – | – | O=C(O)c1ccc(NC2CCC2)nc1
19 | 100 | inactive | – | – | CCCCNc1ccc(C(=O)O)cn1
20 | 7410 | inactive | – | – | CNc1ccc(C(=O)O)cn1
21 | – | inactive | – | inactive | O=C(O)c1ccc(N2CCCC2)nc1
22 | 6310 | inactive | – | – | CCCN(CCC)c1ccc(C(=O)O)cn1
23 | 269 | – | 20000 | – | CCC(CC)Nc1ccc(C(=O)O)cn1
24 | 309 | inactive | – | – | O=C(O)c1ccc(NC2CC2)c([N+](=O)[O-])c1

Row | EC50 [1] [nM] | Activity [2] | EC50 [3] [nM] | Activity ([1]; CHO-K1) | Compound
25 | 324 | inactive | – | – | O=C(O)c1ccc(NC2CC2)nc1
26 | 1580 | inactive | – | – | O=C(O)c1ccc(NC(=O)c2ccccc2)nc1
27 | 309 | inactive | – | – | O=C(O)c1ccc(NCC2CCCO2)c([N+](=O)[O-])c1 (centres undefined)
28 | 603 | inactive | – | – | CC(C)Nc1ccc(C(=O)O)cn1
29 | 933 | inactive | – | – | COCCNc1ccc(C(=O)O)cn1
30 | 3240 | inactive | – | – | O=C(O)c1ccc(Nc2ccccc2)nc1
31 | 389 | inactive | – | – | O=C(O)c1ccc(NC2CCCC2)nc1
32 | 57.5 | inactive | – | – | CCC(CC)Nc1ccc(C(=O)O)cc1[N+](=O)[O-]
33 | 603 | inactive | – | – | O=C(O)c1ccc(NCC2CCCO2)nc1 (centres undefined)
34 | 363 | inactive | – | – | CC(C)C(C)Nc1ccc(C(=O)O)cc1[N+](=O)[O-] (centres undefined)
35 | 1620 | inactive | – | – | CCCN(C)c1ccc(C(=O)O)cn1
36 | 100 | inactive | – | – | C=CCNc1ccc(C(=O)O)cc1[N+](=O)[O-]
37 | 631 | inactive | – | – | CCN(CC)c1ccc(C(=O)O)cc1[N+](=O)[O-]
38 | 2450 | inactive | – | – | O=C(O)c1ccc(Nc2ccccc2)c([N+](=O)[O-])c1
39 | 2040 | inactive | – | – | CN(C)c1ccc(C(=O)O)cc1[N+](=O)[O-]
40 | 158 | inactive | – | – | CCCCNc1ccc(C(=O)O)cc1[N+](=O)[O-]
41 | 1320 | inactive | – | – | CC(C)C(C)Nc1ccc(C(=O)O)cn1 (centres undefined)
42 | 51.3 | inactive | – | – | CCCNc1ccc(C(=O)O)cn1
43 | 151 | inactive | – | – | CCC(C)Nc1ccc(C(=O)O)cc1[N+](=O)[O-] (centres undefined)
44 | 52.5 | inactive | – | – | CCCN(C)c1ccc(C(=O)O)cc1[N+](=O)[O-]
45 | 1410 | inactive | – | – | COCC(C)Nc1ccc(C(=O)O)cc1[N+](=O)[O-] (centres undefined)
46 | > 10000 | inactive | – | – | CN(C)c1ccc(C(=O)O)cn1
47 | 398 | inactive | – | – | CCNc1ccc(C(=O)O)cn1
